Columns and labels:
[1] = tested on: human myocytes; test: Nanoindentation stiffness measurements; format: cell-based; details: failing human myocytes; 10 μM, 2 hours
Procedure: Viable myocytes were concentrated by gravity (5-7 min) and supernatant was aspirated to remove dead cells. Myocytes were resuspended in NT solution containing 1 mM Ca^2+ and concentrated by gravity (5-7 min) again. Cardiomyocytes used acutely were maintained in NT solution for up to 6 hours. Myocytes were treated with 10 μM parthenolide (Fisher Scientific NC9013142 or Sigma P0667) or 10 μM colchicine (Sigma) at room temperature in NT solution for 2 hours. Experiments were performed within 6 hours of isolation, except for those involving viral transduction in cultured cells.
MatTek glass bottom dish was coated 5 μl of 0.5 mg/ml laminin and air dried for 10 min. Culture medium was F-10 (1×) Nutrient Mixture (Ham) [+] L-Glutamine (Life Technologies, 11550-043) supplemented with insulin-transferrin selenium-X (Gibco, 51500-056), 20 mM HEPES, 1 μg/μl primocin (Invivogen, ant-pm-1), 0.4 mM extra CaCl2, 5% FBS, 25 μM cytochalasin D (Cayman, 11330). Viable myocytes were concentrated and a proper amount of medium was added in culture so that neighboring cells were not in direct contact. […]
Mechanical properties at the microscopic scale were measured using nanoindentation (Piuma, Optics11, The Netherlands). […] The Young's moduli were calculated automatically by the software, by fitting the force vs. indentation curve to the Hertz equation. […]

[2] = tested on: microtubules in contracting cardiomyocytes; test: Microtubule buckling in contracting cardiomyocytes (Airyscan imaging); format: cell-based, rat
Procedure: Confocal imaging was carried out on a Zeiss 780 laser scanning confocal scan head operating on an Axiovert Z1 inverted microscope equipped with a 40× oil 1.4 NA objective. High-speed super resolution imaging was carried out on a Zeiss 880 Airyscan confocal with a 63×1.4 oil NA objective (FIG. 8A-FIG. 8E, Airyscan application note can be found at http://www.zeiss.com/microscopy/enus/products/confocal-microscopes/Ism-880-with-airyscan-.html#downloads). Image analysis was performed using ZEN Black software for Airyscan processing, which involves signal integration from the 32 separate sub-resolution detectors in the Airyscan detector and subsequent deconvolution of this integrated signal (FIG. 8A-FIG. 8E). Additional signal processing was performed in Image J (NIH). For calculating the microtubule fraction of cell area (FIG. 2B-FIG. 2C), image analysis was performed blinded to the experimental treatment groups. A 1.5 μm max intensity projection was produced from 3 0.5 μm confocal z-sections. […] From the resulting binary images (FIG. 9B), the microtubule positive fraction of the total cell area was calculated for alpha and detyrosinated tubulin (FIG. 2C).
Analysis of buckling parameters was performed on 1-8 microtubules per image series. Analysis was done blind to the experimental condition and, where possible, followed a microtubule selected from resting frames to avoid biased selection of microtubules that buckled during contraction. A centerline was drawn along the axis of the microtubule and the maximum distance to the edge of the microtubule was recorded as the amplitude (FIG. 1G, red). MTs were further analyzed by recording the distance between 2 consecutive inflection points (FIG. 1G, yellow) as half the wavelength. This short metric was selected instead of full wavelength to maximize inclusion of microtubules for which labeling or z-displacement prevented inclusion of a full cycle in the image.

[3] = tested on: desmin; test: Microtubule co-sedimentation with desmin; format: cell-based; details: after PTL treatment; rat cardiomyocytes and C2C12 cells
Procedure: Microtubules were isolated for co-sedimentation from isolated cardiomyocytes or C2C12 cells following treatment with parthenolide. Cells were homogenized at 37° C. in 400 μl of microtubule-stabilizing buffer (MSB) by passage through 25G syringe needle. Homogenate was centrifuged to remove cell debris at 2000×g for 5 min at 37° C. and pellet was resuspended in RIPA buffer containing 5 mM CaCl2. Supematant containing free and polymerized tubulin was loaded on a cushion of 10% sucrose in MSB and centrifuged in SW-60 rotor at 100000×g for 30 min at 37° C. Supernatant was saved, pellet (polymerized MT fraction) was resuspended in 0° C. RIPA buffer containing 5 mM CaCl2 and incubated on ice for 10 min. All samples were then centrifuged at 14000×g for 5 min at 0° C. and supernatant was measured by Bradford assay against a BSA (Sigma) standard and boiled in 12-40 μl of 1× loading buffer (Li-COR, 928-40004) prior to western blotting.

## C=C1C(=O)O[C@H]2[C@H]1CC/C(C)=C/CC[C@@]1(C)O[C@@H]21 [PTL, 4,5-epoxygermacra-1(10),11(13)-dien-12,6-olactone]
[1]
  viscoelasticity (Emax and EΔ): robustly reduced viscoelasticity
[2]; amplitude change on same followed MT between rest and contraction
  Amp (Δ): 0.078
[2]; buckling amplitude, contracted cardiomyocytes
  Amp Contract: 0.212
[2]; buckling amplitude, resting cardiomyocytes
  Amp Rest: 0.134
[2]; number of buckled microtubules, N microtubules 24 (Parth) and 62 (TTL)
  N Buckled: 9
[2]; vs control myocytes
  occurrence of buckling: fell significantly
[3]
  amount of desmin associated with the MTs: directly proportional to the amount of MT detyrosination

— patent US20180326022A1, “COMPOSITIONS AND METHODS FOR IMPROVING HEART FUNCTION AND TREATING HEART FAILURE” (The Trustees of the University of Pennsylvania, priority 2017, published 2018)
